A short description of data set [1]: Inhibition of recombinant HIV1 Viral Protein U expressed in Escherichia coli BL21(DE3) cells/BST-2 (unknown origin) interaction at 100 uM preincubated for 30 mins with viral protein U followed by further incubation with BST-2 for 1 hr by sandwich ELISA relative to control. As to conditions: time 90.0 min. (An ELISA detects its analyte on a solid surface through an enzyme-linked reagent.)

The nature of data set [2]: Inhibition of recombinant biotinylated HIV1 Viral Protein U expressed in Escherichia coli BL21(DE3)cells/recombinant GST-tagged BST-2 (unknown origin) interaction at 100 uM preincubated for 30 mins with viral protein U followed by further incubation with BST-2 for 1 hr by Alphascreen assay relative to control. Particulars: time 90.0 min. For orientation: In Alpha technology, singlet oxygen from a donor bead excites a nearby acceptor bead.

Data set [3] is described as follows: Selectivity index, ratio of CC50 for human MT4 cells to EC50 for antiviral activity against HIV1 LAV infected in human MT4 cells. The class given is toxicity, cell-based. As to conditions: MT4 cells (CC50) and HIV1 LAV infected MT4 cells (EC50).
Data set [4] in a line: Aqueous solubility of the compound in phosphate buffer saline at 100 uM at wavelength of 250 nm incubated for overnight under shaking condition by filtration assay based UV-visible spectroscopy. The format is physicochemical.
Data set [5] is described as follows: Cytotoxicity against human MT4 cells assessed as inhibition of cell viability incubated for 72 hrs by MTS assay. The format is cell-based. A general note: Formazan colour is commonly taken as a measure of viable cells.
A short description of data set [6]: Inhibition of recombinant biotinylated HIV1 Viral Protein U expressed in Escherichia coli BL21(DE3) cells/recombinant GST-tagged BST-2 (unknown origin) interaction preincubated for 30 mins with viral protein U followed by further incubation with BST-2 for 1 hr by Alphascreen assay.
In data set [7] the test system is Human immunodeficiency virus 1. Description: Antiviral activity against HIV1 LAV infected in human MT4 cells assessed as reduction in viral replication by measuring reduction in p24 expression incubated for 72 hrs by ELISA. Particulars: Human immunodeficiency virus 1, LAV, MT4, 72 h. The format is functional, organism-based.
Data set [8] can be described thus: Aqueous solubility of the compound in phosphate buffer saline at 200 uM at wavelength of 250 nm incubated for overnight under shaking condition by filtration assay based UV-visible spectroscopy. The format is physicochemical.
Data set [9] deals with Human immunodeficiency virus 1. As to the kind of experiment: Antiviral activity against HIV1 infected in PBMC assessed as reduction in viral replication by measuring reduction in p24 production by ELISA. The class given is functional, organism-based. As to conditions: Human immunodeficiency virus 1, PBMC.

A word on the inhibition: it is the drop in the measured response relative to a control, in per cent. Usually solubility stands for the dissolved amount per volume that the medium holds. The CC50 is the concentration that lowers cell viability or growth by half. Usually IC50 stands for the point on the concentration scale where inhibition reaches its midpoint. What is called EC50 is the midpoint of the concentration-response curve.

As for `NNC(=O)Cn1cncc1-c1ccc(F)cc1`, the inhibition in data set [1] stood at 48%.

Consider `COc1cccc(-c2cncn2CC(=O)O)c1`, for which the inhibition in data set [1] came to 30%.

Regarding `NNC(=O)Cn1cncc1-c1ccc2c(c1)OCO2`, the inhibition in data set [1] is 22%.

In the case of `COc1ccc(-c2cncn2CC(=O)O)cc1OC`, the inhibition in [1] amounted to 25%.

Turning to `CCOC(=O)Cn1cncc1-c1ccc(F)cc1`, the inhibition in [2] came out at 55%; in data set [1], 54%.

In the case of `O=c1cnn([C@@H]2O[C@H](CO)[C@@H](O)[C@H]2O)c(=S)[nH]1`, the inhibition in data set [1] was 54%.

Consider `COc1cccc(-c2cncn2CC(=O)NN)c1`, for which the selectivity ratio in [3] is 1. In addition, the inhibition in data set [2] amounted to 68%; in data set [1], 69%. Further, the solubility at 100 µM in data set [4] is not below 100 µM. Moreover, in data set [5], the CC50 at 72 h is 160 µM. In data set [6], the IC50 came out at 17.6 µM. Also, in [7], the EC50 amounted to 158 µM. In data set [8], this molecule gave a solubility at 200 µM not below 200 µM.

Consider `COc1ccc(-c2cncn2CC(=O)O)cc1O`, for which the inhibition in data set [1] came out at 0%.

In the case of `COc1ccc(-c2cncn2CC(=O)NN)cc1OC`, in [1], the inhibition is 28%.

For the molecule `CCOC(=O)Cn1cncc1-c1ccc(OC)c(O)c1`, the inhibition in data set [1] is 30%.

With `COc1ccc(-c2cncn2CC(=O)NN)cc1O`, the results for the inhibition in [2] and in [1] were 60% and 72%, respectively.

For `CCOC(=O)[C@H](C)n1cncc1-c1ccc(OC)c(OC)c1`, the inhibition in data set [1] stood at 20%.

With `O=C(O)Cn1cncc1-c1ccc(F)cc1`, the inhibition in data set [1] was found to be 11%.

In the case of `Cc1nnc(C(=O)NC(C)(C)c2nc(C(=O)NCc3ccc(F)cc3)c(O)c(=O)n2C)o1` [RALTEGRAVIR], the values for the EC50 in [9] and in data set [7] were not above 8 nM and 0.0079 µM, respectively.

As for `NNC(=O)Cn1cncc1-c1ccccc1`, the inhibition in data set [1] turned out to be 39%.

Take `O=C(O)Cn1cncc1-c1ccc2c(c1)OCO2`: in data set [1], the inhibition is 9%.

Consider `CC(C)(C)c1ccc(-c2cncn2CC(=O)NN)cc1`, for which, in data set [1], the inhibition came to 45%.

For the molecule `CCOC(=O)Cn1cncc1-c1ccccc1`, in data set [3], the selectivity ratio is 29. In addition, the values for the inhibition in data set [2] and in data set [1] were 83% and 82%, respectively. The molecule also displayed a solubility at 100 µM in data set [4] not below 100 µM. Also, the CC50 at 72 h in data set [5] is 184 µM. In addition, the IC50 in data set [6] came out at 11.6 µM. For the same molecule, the EC50 in data set [7] was 6.3 µM. The molecule also yielded a solubility at 200 µM in [8] not below 200 µM.

In the case of `CC(C)(C)c1ccc(-c2cncn2CC(=O)O)cc1`, the inhibition in data set [1] came to 2%.

As for `CCOC(=O)Cn1cncc1-c1ccc(C(C)(C)C)cc1`, the inhibition in [1] amounted to 17%.

`CCOC(=O)Cn1cncc1-c1cccc(OC)c1`: the inhibition in data set [2] turned out to be 56%; in data set [1] it was 51%.

In the case of `CCOC(=O)[C@H](C)n1cncc1-c1ccccc1`, in [1], the inhibition was determined as 22%.

Take `O=C(O)Cn1cncc1-c1ccccc1`: the inhibition in [1] was 0%.

Regarding `CCOC(=O)Cn1cncc1-c1ccc(OC)c(OC)c1`, the inhibition in data set [2] was 61%; in data set [1], 58%.

Consider `CCOC(=O)[C@H](C)n1cncc1-c1ccc(F)cc1`, for which the inhibition in [2] worked out at 64%; in data set [1], 63%.

With `CCOC(=O)Cn1cncc1-c1ccc2c(c1)OCO2`, the inhibition in data set [1] turned out to be 33%.

The record behind these values is ChEMBL document CHEMBL4765264, “Design, synthesis and biological evaluation of novel 2-(5-aryl-1H-imidazol-1-yl) derivatives as potential inhibitors of the HIV-1 Vpu and host BST-2 protein interaction” (Eur J Med Chem, 2020).
